{"source": "ChEMBL document CHEMBL3774317", "about": "“Design and synthesis of novel tamoxifen analogues that avoid CYP2D6 metabolism” (Eur J Med Chem, 2016)", "type_in_all_cases": "functional", "key": {"[1]": {"test": "Cytotoxicity against human PC3 cells assessed as cell growth at 10^-4 M after 48 hrs by SRB assay", "details": "PC-3, 48 h, read-out: Activity"}, "[2]": {"test": "Cytotoxicity against human HOP62 cells assessed as cell growth at 10^-6 M after 48 hrs by SRB assay", "details": "HOP-62, 48 h, read-out: Activity"}, "[3]": {"test": "Cytotoxicity against human BT549 cells assessed as cell growth at 10^-7 M after 48 hrs by SRB assay", "details": "BT-549, 48 h, read-out: Activity"}, "T47D [4]": {"system": "T47D", "test": "Cytotoxicity against human T47D cells assessed as cell growth at 10^-7 M after 48 hrs by SRB assay", "details": "read-out: Activity"}, "A498 [5]": {"system": "A498", "test": "Cytotoxicity against human A498 cells assessed as cell growth at 10^-5 M after 48 hrs by SRB assay", "details": "A498, 48 h, read-out: Activity"}, "[6]": {"test": "Cytotoxicity against human PC3 cells assessed as cell growth at 10^-8 M after 48 hrs by SRB assay", "details": "PC-3, 48 h, read-out: Activity"}, "[7]": {"test": "Cytotoxicity against human HCT116 cells assessed as cell growth at 10^-4 M after 48 hrs by SRB assay", "details": "HCT-116, 48 h, read-out: Activity"}, "[8]": {"test": "Cytotoxicity against human NCI-ADR-RES cells assessed as cell growth at 10^-6 M after 48 hrs by SRB assay", "details": "read-out: Activity"}, "[9]": {"test": "Cytotoxicity against human UACC62 cells assessed as cell growth at 10^-6 M after 48 hrs by SRB assay", "details": "UACC-62, 48 h, read-out: Activity"}, "[10]": {"test": "Cytotoxicity against human SNB19 cells assessed as cell growth at 10^-7 M after 48 hrs by SRB assay", "details": "SNB-19, 48 h, read-out: Activity"}, "MCF7": {"system": "MCF7", "test": "Cytotoxicity against human MCF7 cells assessed as cell growth at 10^-8 M after 48 hrs by SRB assay", "details": "MCF7, 48 h, read-out: Activity"}, "[11]": {"test": "Cytotoxicity against human HCT116 cells assessed as cell growth at 10^-8 M after 48 hrs by SRB assay", "details": "HCT-116, 48 h, read-out: Activity"}, "[12]": {"test": "Cytotoxicity against human MOLT4 cells assessed as cell growth at 10^-5 M after 48 hrs by SRB assay", "details": "MOLT-4, 48 h, read-out: Activity"}, "[13]": {"test": "Cytotoxicity against human HCC2998 cells assessed as cell growth at 10^-8 M after 48 hrs by SRB assay", "details": "HCC 2998, 48 h, read-out: Activity"}, "[14]": {"test": "Cytotoxicity against human HCT116 cells assessed as cell growth at 10^-5 M after 48 hrs by SRB assay", "details": "HCT-116, 48 h, read-out: Activity"}, "[15]": {"test": "Cytotoxicity against human IGROV1 cells assessed as cell growth at 10^-8 M after 48 hrs by SRB assay", "details": "IGROV-1, 48 h, read-out: Activity"}, "[16]": {"test": "Cytotoxicity against human PC3 cells assessed as cell growth at 10^-6 M after 48 hrs by SRB assay", "details": "PC-3, 48 h, read-out: Activity"}, "[17]": {"test": "Cytotoxicity against human OVCAR4 cells assessed as cell growth at 10^-5 M after 48 hrs by SRB assay", "details": "OVCAR-4, 48 h, read-out: Activity"}, "786-0": {"system": "786-0", "test": "Cytotoxicity against human 786-0 cells assessed as cell growth at 10^-7 M after 48 hrs by SRB assay", "details": "786-0, 48 h, read-out: Activity"}, "NCI-H226": {"system": "NCI-H226", "test": "Cytotoxicity against human NCI-H226 cells assessed as cell growth at 10^-8 M after 48 hrs by SRB assay", "details": "NCI-H226, 48 h, read-out: Activity"}, "U-251": {"system": "U-251", "test": "Cytotoxicity against human U251 cells assessed as cell growth at 10^-8 M after 48 hrs by SRB assay", "details": "U-251, 48 h, read-out: Activity"}, "SN12C [18]": {"system": "SN12C", "test": "Cytotoxicity against human SN12C cells assessed as cell growth at 10^-8 M after 48 hrs by SRB assay", "details": "read-out: Activity"}, "[19]": {"test": "Cytotoxicity against human COLO205 cells assessed as cell growth at 10^-6 M after 48 hrs by SRB assay", "details": "COLO 205, 48 h, read-out: Activity"}, "A498 [20]": {"system": "A498", "test": "Cytotoxicity against human A498 cells assessed as cell growth at 10^-4 M after 48 hrs by SRB assay", "details": "A498, 48 h, read-out: Activity"}, "HT-29": {"system": "HT-29", "test": "Cytotoxicity against human HT-29 cells assessed as cell growth at 10^-8 M after 48 hrs by SRB assay", "details": "HT-29, 48 h, read-out: Activity"}, "SK-MEL-2": {"system": "SK-MEL-2", "test": "Cytotoxicity against human SK-MEL-2 cells assessed as cell growth at 50 uM after 48 hrs by SRB assay", "details": "SK-MEL-2, 48 h, read-out: Activity"}, "NCI-H23 [21]": {"system": "NCI-H23", "test": "Cytotoxicity against human NCI-H23 cells assessed as cell growth at 0.5 uM after 48 hrs by SRB assay", "details": "NCI-H23, 48 h, read-out: Activity"}, "[22]": {"test": "Cytotoxicity against human SF295 cells assessed as cell growth at 50 nM after 48 hrs by SRB assay", "details": "SF-295, 48 h, read-out: Activity"}, "MDA-MB-435": {"system": "MDA-MB-435", "test": "Cytotoxicity against human MDA-MB-435 cells assessed as cell growth at 0.5 uM after 48 hrs by SRB assay", "details": "MDA-MB-435, 48 h, read-out: Activity"}, "[23]": {"test": "Cytotoxicity against human OVCAR8 cells assessed as cell growth at 50 uM after 48 hrs by SRB assay", "details": "OVCAR-8, 48 h, read-out: Activity"}, "[24]": {"test": "Cytotoxicity against human Caki1 cells assessed as cell growth at 50 uM after 48 hrs by SRB assay", "details": "CAKI-1, 48 h, read-out: Activity"}, "[25]": {"test": "Cytotoxicity against human OVCAR5 cells assessed as cell growth at 0.5 uM after 48 hrs by SRB assay", "details": "OVCAR-5, 48 h, read-out: Activity"}, "SN12C [26]": {"system": "SN12C", "test": "Cytotoxicity against human SN12C cells assessed as cell growth at 50 nM after 48 hrs by SRB assay", "details": "read-out: Activity"}, "CCRF-CEM": {"system": "CCRF-CEM", "test": "Cytotoxicity against human CCRF-CEM cells assessed as cell growth at 0.5 uM after 48 hrs by SRB assay", "details": "read-out: Activity"}, "[27]": {"test": "Cytotoxicity against human UACC62 cells assessed as cell growth at 5 uM after 48 hrs by SRB assay", "details": "UACC-62, 48 h, read-out: Activity"}, "[28]": {"test": "Cytotoxicity against human NCI-ADR-RES cells assessed as cell growth at 5 uM after 48 hrs by SRB assay", "details": "read-out: Activity"}, "[29]": {"test": "Cytotoxicity against human TK10 cells assessed as cell growth at 50 uM after 48 hrs by SRB assay", "details": "TK-10, 48 h, read-out: Activity"}, "NCI-H23 [30]": {"system": "NCI-H23", "test": "Cytotoxicity against human NCI-H23 cells assessed as cell growth at 5 nM after 48 hrs by SRB assay", "details": "NCI-H23, 48 h, read-out: Activity"}, "[31]": {"test": "Cytotoxicity against human SF539 cells assessed as cell growth at 0.5 uM after 48 hrs by SRB assay", "details": "SF-539, 48 h, read-out: Activity"}, "[32]": {"test": "Cytotoxicity against human SKOV3 cells assessed as cell growth at 50 nM after 48 hrs by SRB assay", "details": "SK-OV-3, 48 h, read-out: Activity"}, "T47D [33]": {"system": "T47D", "test": "Cytotoxicity against human T47D cells assessed as cell growth at 5 uM after 48 hrs by SRB assay", "details": "read-out: Activity"}, "T47D [34]": {"system": "T47D", "test": "Cytotoxicity against human T47D cells assessed as cell growth at 50 uM after 48 hrs by SRB assay", "details": "read-out: Activity"}}, "data": [{"smiles": "C/C(=C(/c1ccc(O)cc1)c1ccc(OCCN2CCCC2)cc1)c1ccccc1", "values": [{"measurement": "growth at 100 µM", "setting": "[1]", "value": -96, "unit": "%"}, {"measurement": "growth at 1 µM", "setting": "[2]", "value": 98, "unit": "%"}, {"measurement": "growth at 0.1 µM", "setting": "[3]", "value": 100, "unit": "%"}, {"measurement": "growth at 0.1 µM", "setting": "T47D [4]", "value": 63, "unit": "%"}, {"measurement": "growth at 10 µM", "setting": "A498 [5]", "value": -5, "unit": "%"}, {"measurement": "growth at 0.01 µM", "setting": "[6]", "value": 104, "unit": "%"}, {"measurement": "growth at 100 µM", "setting": "[7]", "value": -98, "unit": "%"}, {"measurement": "growth at 1 µM", "setting": "[8]", "value": 91, "unit": "%"}, {"measurement": "growth at 1 µM", "setting": "[9]", "value": 106, "unit": "%"}, {"measurement": "growth at 0.1 µM", "setting": "[10]", "value": 101, "unit": "%"}, {"measurement": "growth at 0.01 µM", "setting": "MCF7", "value": 44, "unit": "%"}, {"measurement": "growth at 0.01 µM", "setting": "[11]", "value": 97, "unit": "%"}, {"measurement": "growth at 10 µM", "setting": "[12]", "value": 3, "unit": "%"}, {"measurement": "growth at 0.01 µM", "setting": "[13]", "value": 100, "unit": "%"}, {"measurement": "growth at 10 µM", "setting": "[14]", "value": 1, "unit": "%"}, {"measurement": "growth at 0.01 µM", "setting": "[15]", "value": 106, "unit": "%"}, {"measurement": "growth at 1 µM", "setting": "[16]", "value": 103, "unit": "%"}, {"measurement": "growth at 10 µM", "setting": "[17]", "value": 31, "unit": "%"}, {"measurement": "growth at 0.1 µM", "setting": "786-0", "value": 99, "unit": "%"}, {"measurement": "growth at 0.01 µM", "setting": "NCI-H226", "value": 91, "unit": "%"}, {"measurement": "growth at 0.01 µM", "setting": "U-251", "value": 103, "unit": "%"}, {"measurement": "growth at 0.01 µM", "setting": "SN12C [18]", "value": 101, "unit": "%"}, {"measurement": "growth at 1 µM", "setting": "[19]", "value": 88, "unit": "%"}, {"measurement": "growth at 100 µM", "setting": "A498 [20]", "value": -82, "unit": "%"}, {"measurement": "growth at 0.01 µM", "setting": "HT-29", "value": 101, "unit": "%"}]}, {"smiles": "CCCCCCCCCC(=O)Oc1ccc(/C(=C(/C)c2ccccc2)c2ccc(OCCN3CCCC3)cc2)cc1", "values": [{"measurement": "growth at 50 µM", "setting": "SK-MEL-2", "value": -79, "unit": "%"}, {"measurement": "growth at 0.5 µM", "setting": "NCI-H23 [21]", "value": 71, "unit": "%"}, {"measurement": "growth at 0.05 µM", "setting": "[22]", "value": 89, "unit": "%"}, {"measurement": "growth at 0.5 µM", "setting": "MDA-MB-435", "value": 67, "unit": "%"}, {"measurement": "growth at 50 µM", "setting": "[23]", "value": -58, "unit": "%"}, {"measurement": "growth at 50 µM", "setting": "[24]", "value": -89, "unit": "%"}, {"measurement": "growth at 0.5 µM", "setting": "[25]", "value": 77, "unit": "%"}, {"measurement": "growth at 0.05 µM", "setting": "SN12C [26]", "value": 101, "unit": "%"}, {"measurement": "growth at 0.5 µM", "setting": "CCRF-CEM", "value": 76, "unit": "%"}, {"measurement": "growth at 5 µM", "setting": "[27]", "value": 100, "unit": "%"}, {"measurement": "growth at 5 µM", "setting": "[28]", "value": 82, "unit": "%"}, {"measurement": "growth at 50 µM", "setting": "[29]", "value": -87, "unit": "%"}, {"measurement": "growth at 0.005 µM", "setting": "NCI-H23 [30]", "value": 92, "unit": "%"}, {"measurement": "growth at 0.5 µM", "setting": "[31]", "value": 72, "unit": "%"}, {"measurement": "growth at 0.05 µM", "setting": "[32]", "value": 90, "unit": "%"}, {"measurement": "growth at 5 µM", "setting": "T47D [33]", "value": 52, "unit": "%"}, {"measurement": "growth at 50 µM", "setting": "T47D [34]", "value": -61, "unit": "%"}]}]}
